Test system: 379773-124-R-J2-PDC spheroid viability
Test: Anticancer human tumor 379773-124-R-J2-PDC patient-derived endometrial carcinoma cell line growth inhibition [POLQ]
Details: spheroids with HUVEC and MSC; for IC50: curve of first compound; for viability, T/C: stronger effect = lower value; active = viability on the fitted dose curve at most 10% of control; inactive = the rest
Summary of the method: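 PDC + HUVEC + MSC complex spheroids; POLQ inhibitors ± partner drugs; top conc. at/near clinical Cmax, else 10 microM (SN-38 1 microM), half-log dilutions; 37 degrees C, 5% CO2.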
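Note: spheroids exposed to drugs for seven days before readout.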
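Throughout, for viability, T/C: percent viability relative to DMSO vehicle control taken as 100%.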

CC(=O)O[C@H]1C(=O)[C@@]2(C)[C@H]([C@H](OC(=O)c3ccccc3)[C@]3(O)C[C@H](OC(=O)[C@H](O)[C@@H](NC(=O)c4ccccc4)c4ccccc4)C(C)=C1C3(C)C)[C@]1(OC(C)=O)CO[C@@H]1C[C@@H]2O + Cc1cccc(N(C)C(=O)C2C(O)CCN2c2nc(C)cc(C(F)(F)F)c2C#N)c1
< 9.49 nM: IC50 (second compound 0.0316 µM) | IC50 (second compound 0.1 µM) | IC50 (second compound 0.316 µM) | IC50 (second compound 1 µM) | IC50 (second compound 3.16 µM) | IC50 (second compound 10 µM)
inactive: viability, T/C (second compound 0.0316 µM, first compound 0.00949 µM) 24.4% | viability, T/C (second compound 0.0316 µM, first compound 0.03 µM) 11.6% | viability, T/C (second compound 0.0316 µM, first compound 0.0949 µM) 7.9% | viability, T/C (second compound 0.0316 µM, first compound 0.3 µM) 12.8% | viability, T/C (second compound 0.0316 µM, first compound 0.949 µM) 13.3% | viability, T/C (second compound 0.0316 µM, first compound 3 µM) 10.6% | viability, T/C (second compound 0.1 µM, first compound 0.00949 µM) 25.5% | viability, T/C (second compound 0.316 µM, first compound 0.00949 µM) 27.3% | viability, T/C (second compound 0.316 µM, first compound 0.03 µM) 9.48% | viability, T/C (second compound 0.316 µM, first compound 0.0949 µM) 11.7% | viability, T/C (second compound 0.316 µM, first compound 0.3 µM) 9.83% | viability, T/C (second compound 0.316 µM, first compound 0.949 µM) 10.2% | viability, T/C (second compound 0.316 µM, first compound 3 µM) 9.11% | viability, T/C (second compound 1 µM, first compound 0.00949 µM) 23.7% | viability, T/C (second compound 1 µM, first compound 0.03 µM) 13.9% | viability, T/C (second compound 1 µM, first compound 0.0949 µM) 11.9% | viability, T/C (second compound 1 µM, first compound 0.3 µM) 10.7% | viability, T/C (second compound 3.16 µM, first compound 0.00949 µM) 15.8% | viability, T/C (second compound 3.16 µM, first compound 0.03 µM) 8.23% | viability, T/C (second compound 3.16 µM, first compound 0.0949 µM) 10.8% | viability, T/C (second compound 3.16 µM, first compound 0.3 µM) 11.8% | viability, T/C (second compound 3.16 µM, first compound 0.949 µM) 10.8% | viability, T/C (second compound 3.16 µM, first compound 3 µM) 12% | viability, T/C (second compound 10 µM, first compound 0.00949 µM) 16.4% | viability, T/C (second compound 10 µM, first compound 0.03 µM) 10.1%
active: viability, T/C (second compound 0.1 µM, first compound 0.03 µM) 8.1% | viability, T/C (second compound 0.1 µM, first compound 0.0949 µM) 9.59% | viability, T/C (second compound 0.1 µM, first compound 0.3 µM) 9.63% | viability, T/C (second compound 0.1 µM, first compound 0.949 µM) 10.5% | viability, T/C (second compound 0.1 µM, first compound 3 µM) 7.41% | viability, T/C (second compound 1 µM, first compound 0.949 µM) 10.9% | viability, T/C (second compound 1 µM, first compound 3 µM) 7.53% | viability, T/C (second compound 10 µM, first compound 0.0949 µM) 9.57% | viability, T/C (second compound 10 µM, first compound 0.3 µM) 10.7% | viability, T/C (second compound 10 µM, first compound 0.949 µM) 10.5% | viability, T/C (second compound 10 µM, first compound 3 µM) 7.56%

COc1cc(C2c3cc4c(cc3C(OC3OC5COC(C)OC5C(O)C3O)C3COC(=O)C23)OCO4)cc(OC)c1O (centres undefined) + Cc1cccc(N(C)C(=O)C2C(O)CCN2c2nc(C)cc(C(F)(F)F)c2C#N)c1
active: viability, T/C (second compound 0.0316 µM, first compound 10 µM) 8.66% | viability, T/C (second compound 0.1 µM, first compound 10 µM) 9.6% | viability, T/C (second compound 0.316 µM, first compound 10 µM) 9.6% | viability, T/C (second compound 10 µM, first compound 10 µM) 11.2%
1190 nM: IC50 (second compound 0.0316 µM) | IC50 (second compound 1 µM)
inactive: viability, T/C (second compound 0.0316 µM, first compound 0.0316 µM) 91.2% | viability, T/C (second compound 0.0316 µM, first compound 0.1 µM) 71.9% | viability, T/C (second compound 0.0316 µM, first compound 0.316 µM) 82.6% | viability, T/C (second compound 0.0316 µM, first compound 1 µM) 56.5% | viability, T/C (second compound 0.0316 µM, first compound 3.16 µM) 12.7% | viability, T/C (second compound 0.1 µM, first compound 0.0316 µM) 82.8% | viability, T/C (second compound 0.1 µM, first compound 0.1 µM) 83.6% | viability, T/C (second compound 0.1 µM, first compound 0.316 µM) 83.8% | viability, T/C (second compound 0.1 µM, first compound 1 µM) 58% | viability, T/C (second compound 0.1 µM, first compound 3.16 µM) 12.7% | viability, T/C (second compound 0.316 µM, first compound 0.0316 µM) 86% | viability, T/C (second compound 0.316 µM, first compound 0.1 µM) 82% | viability, T/C (second compound 0.316 µM, first compound 0.316 µM) 68.4% | viability, T/C (second compound 0.316 µM, first compound 1 µM) 52.9% | viability, T/C (second compound 0.316 µM, first compound 3.16 µM) 12% | viability, T/C (second compound 1 µM, first compound 0.0316 µM) 74.4% | viability, T/C (second compound 1 µM, first compound 0.1 µM) 84.9% | viability, T/C (second compound 1 µM, first compound 0.316 µM) 71.1% | viability, T/C (second compound 1 µM, first compound 1 µM) 57.1% | viability, T/C (second compound 1 µM, first compound 3.16 µM) 9.91% | viability, T/C (second compound 1 µM, first compound 10 µM) 11.1% | viability, T/C (second compound 3.16 µM, first compound 0.0316 µM) 73.3% | viability, T/C (second compound 3.16 µM, first compound 0.1 µM) 80.9% | viability, T/C (second compound 3.16 µM, first compound 0.316 µM) 77.9% | viability, T/C (second compound 3.16 µM, first compound 1 µM) 51.4% | viability, T/C (second compound 3.16 µM, first compound 3.16 µM) 11% | viability, T/C (second compound 3.16 µM, first compound 10 µM) 13.6% | viability, T/C (second compound 10 µM, first compound 0.0316 µM) 77.6% | viability, T/C (second compound 10 µM, first compound 0.1 µM) 75% | viability, T/C (second compound 10 µM, first compound 0.316 µM) 66.1% | viability, T/C (second compound 10 µM, first compound 1 µM) 35.5% | viability, T/C (second compound 10 µM, first compound 3.16 µM) 11.9%
1040 nM: IC50 (second compound 3.16 µM)
577 nM: IC50 (second compound 10 µM)
1230 nM: IC50 (second compound 0.1 µM)
914 nM: IC50 (second compound 0.316 µM)

— PubChem BioAssay AID1963848 (Molecular Pharmacology Branch, DTP, NCI, 2024)
